Measurements taken from patent US11312925B2, “Pyrithione preservative system and C1-C12 ethoxylated alcohol in hard surface cleaning products” (ECOLAB USA INC., priority 2015, dated 2022).

How the values were obtained:
[1] = Compatibility in solution with 4500 MW polyacrylic acid polymer under acidic conditions; type: physicochemical
[2] = tested on: Bacterial cocktail (Staphylococcus aureus ATCC 6538, Escherichia coli ATCC 11229, Enterobacter aerogenes ATCC 13048, Burkholderia cepacia ATCC 25416 …); test: Preservative test over 28 days in 7 and 18.5 grain water, bacterial counts (Example 5); type: cell-based; settings: 140 ppm with 2000 ppm monosodium citrate versus 300 ppm with no added acidity
[3] = tested on: Yeast and mold cocktail (Canidia albicans ATCC 10231, Saccharomyces cerevisiae ATCC 834, Aspergillus niger ATCC 16404); test: Preservative test over 28 days in 7 and 18.5 grain water, yeast and mold counts (Example 5); type: cell-based; settings: 140 ppm with 2000 ppm monosodium citrate versus 200 ppm bis (3-aminopropyl) dodecylamine in hard water
Experimental: For USP bacteria there must be no less than 2.0 log reduction from the initial inoculated count at 14 days, and no increase from the 14 days' count at 28 days. A result of “no increase” is defined as not more than 0.5 log higher than previous value. For additional standards examined the preservation capability of a composition is evaluated over a predetermined time (as identified in the Example) and the inhibition or reduction of microbial growth is assessed, without the requirement for complete elimination of the entire microbial inoculum.
The survival of both bacterial cocktail and fungal cocktails (as described in prior Example) were monitored over 28 days.
The yeast and mold inoculum was made up of equal parts of the organisms listed (incubated in sabourand agar at 26° C. for 3 days):

[4] = tested on: yeast and mold inoculum cocktail (Canidia albicans ATCC 10231, Saccharomyces cerevisiae ATCC 834, Aspergillus niger ATCC 16404); settings: over 3 weeks in sump solution; compared with the other evaluated preservatives; FIG. 1
Experimental: In order to identify preservative systems for replacing Kathon CG-ICP (isothiazolinone blend) from solid rinse aid formulations, various potential preservatives were evaluated.
For performance reasons, the preservatives were tested with the 4500 MW polyacrylic acid polymer and 10% level of monosodium citrate or fumaric acid.
The test temperature was ambient (20° C.-26° C.) and exposure times were 0, 7, 14, 28 and 35 days.
The preservatives were formulated at their upper concentration levels before triggering the use of personal protective equipment and measured fungi recovered and pH.

| behaviour in solution with the 4500 MW polyacrylic acid polymer [1] | Compound | inhibition of microorganisms (especially bacteria), comparison [2] | preservation performance, comparison [3] | impact at reducing fungi (mean log fungi reduction) [4] |
| --- | --- | --- | --- | --- |
| precipitate out of solution | CCCCCCCCCCCCN(CCCN)CCCN [bis (3-aminopropyl) dodecylamine, Bis (3-aminopropyl) dodecylamine] | – | – | – |
| – | On1ccccc1=S.[Na] [sodium pyrithione, 1-hydroxy-2(1H)-pyridinethione, sodium salt] | much more effective at inhibiting microorganisms | outperformed | greatest impact at reducing fungi |
